Experimental data: PubChem BioAssay (NCI)
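In this assay, cells in 96-well plates receive the compound at five concentrations for 48 hours. Endpoints are linearly interpolated between the surrounding concentrations. At the GI50, growth is halved. The concentration for full growth arrest is given as TGI.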

What was measured:
Experiment in all cases: inhibition of tumour cell growth, NCI panel, 48 h
BT-549 breast = test system: BT-549 breast
K-562 leukemia = test system: K-562 leukemia
SNB-19 CNS = test system: SNB-19 CNS
M14 melanoma = test system: M14 melanoma
SK-OV-3 ovarian = test system: SK-OV-3 ovarian
CAKI-1 renal = test system: CAKI-1 renal
CCRF-CEM leukemia = test system: CCRF-CEM leukemia
MDA-MB-231 breast = test system: MDA-MB-231 breast
NCI-H460 lung = test system: NCI-H460 lung
SN12C renal = test system: SN12C renal
A549 NSCLC = test system: A549 NSCLC
MALME-3M melanoma = test system: MALME-3M melanoma
NCI/ADR-RES ovarian = test system: NCI/ADR-RES ovarian
TK-10 renal = test system: TK-10 renal
HOP-62 NSCLC = test system: HOP-62 NSCLC
786-0 renal = test system: 786-0 renal
SF-268 CNS = test system: SF-268 CNS
T-47D breast = test system: T-47D breast
KM12 colon = test system: KM12 colon
LOX IMVI melanoma = test system: LOX IMVI melanoma
A498 renal = test system: A498 renal
HS 578T breast = test system: HS 578T breast
SF-295 CNS = test system: SF-295 CNS
DU-145 prostate = test system: DU-145 prostate
ACHN renal = test system: ACHN renal
UO-31 renal = test system: UO-31 renal
NCI-H226 lung = test system: NCI-H226 lung
SW-620 colon = test system: SW-620 colon

ClCCn1cnc2c(SCc3ccccc3Cl)ncnc21
TGI (BT-549 breast): 53.6 µM | GI50 (K-562 leukemia): 0.0755 µM | TGI (K-562 leukemia): > 59.1 µM | GI50 (SNB-19 CNS): 1.98 µM | TGI (SNB-19 CNS): > 100 µM | GI50 (M14 melanoma): 7.5 µM | TGI (M14 melanoma): > 76.6 µM | GI50 (SK-OV-3 ovarian): 9.72 µM | TGI (SK-OV-3 ovarian): > 100 µM | GI50 (CAKI-1 renal): 0.272 µM | TGI (CAKI-1 renal): 24.7 µM | GI50 (CCRF-CEM leukemia): 2 µM | TGI (CCRF-CEM leukemia): 36.5 µM | GI50 (MDA-MB-231 breast): 5.77 µM | TGI (MDA-MB-231 breast): > 100 µM | GI50 (NCI-H460 lung): 0.0533 µM | TGI (NCI-H460 lung): 16.4 µM | GI50 (SN12C renal): 1.26 µM | TGI (SN12C renal): > 100 µM | GI50 (A549 NSCLC): 0.278 µM | TGI (A549 NSCLC): > 39.6 µM | GI50 (MALME-3M melanoma): 14.2 µM | TGI (MALME-3M melanoma): 45.4 µM | GI50 (NCI/ADR-RES ovarian): 1.2 µM | TGI (NCI/ADR-RES ovarian): > 52.5 µM | GI50 (TK-10 renal): 5.44 µM | TGI (TK-10 renal): > 83.1 µM | GI50 (HOP-62 NSCLC): 2.56 µM | TGI (HOP-62 NSCLC): > 100 µM | GI50 (786-0 renal): 0.671 µM | TGI (786-0 renal): 20.4 µM | GI50 (SF-268 CNS): 4.87 µM | TGI (SF-268 CNS): > 84.7 µM | GI50 (T-47D breast): 13.7 µM | TGI (T-47D breast): 79.5 µM | GI50 (KM12 colon): 0.789 µM | TGI (KM12 colon): 46.6 µM | GI50 (LOX IMVI melanoma): 0.0756 µM | TGI (LOX IMVI melanoma): 11.9 µM | GI50 (A498 renal): 24.5 µM | TGI (A498 renal): > 93 µM | GI50 (HS 578T breast): 19.4 µM | TGI (HS 578T breast): 89 µM | GI50 (SF-295 CNS): 0.184 µM | TGI (SF-295 CNS): 20.2 µM | GI50 (DU-145 prostate): 0.754 µM | TGI (DU-145 prostate): 25 µM | GI50 (ACHN renal): 0.51 µM | TGI (ACHN renal): > 100 µM | GI50 (UO-31 renal): 0.883 µM | TGI (UO-31 renal): 41.8 µM | GI50 (NCI-H226 lung): 3.52 µM | TGI (NCI-H226 lung): 59.9 µM | GI50 (SW-620 colon): 0.511 µM | TGI (SW-620 colon): > 100 µM
